According to patent publication US11993599B2, “Therapeutic compounds” (Genentech, Inc., priority 2021, dated 2024):

Key:
BRM = BRM (Homo sapiens, UniProt P51531); assay: Immunofluorescence assay for BRM degradation in SW1573 cells; type: cell-based; set-up: treated overnight at 4° C. with either BRM primary antibody (Cell signaling Cat #11966) or BRG primary antibody; endogenous in cells; host or cells: SW1573; conditions: 20 hours incubation; for DC50: immunofluorescence mean nuclear signal, read-out: BRM IF Degradation IC50; for BRM IF Degradation Sinf (%): normalized to a known degrader control
Outline: (§1)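 Imaging-based readout in SW1573: 20 h dosing, formaldehyde fixation, antibody staining for either remodeler, nuclear intensity per cell quantified. Values normalized to control degrader; floating-maximum fit.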

BRG1 = target: T1, BRG1 (Homo sapiens, UniProt P51532); assay: Immunofluorescence assay for BRG1 degradation in SW1573 cells; type: cell-based; conditions: 20 hours incubation; for DC50: immunofluorescence mean nuclear signal, read-out: BRG1 IF Degradation IC50; for Dmax: SW1573, 20 h, normalized to a known degrader control, read-out: BRG1 IF Degradation Sinf (%)
T1 construct: either BRM primary antibody (Cell signaling Cat #11966) or BRG primary antibody (Abcam, ab 110641); endogenous in cells; host or cells: SW1573
Outline: as §1

T1 sequence (P51532 whole entry): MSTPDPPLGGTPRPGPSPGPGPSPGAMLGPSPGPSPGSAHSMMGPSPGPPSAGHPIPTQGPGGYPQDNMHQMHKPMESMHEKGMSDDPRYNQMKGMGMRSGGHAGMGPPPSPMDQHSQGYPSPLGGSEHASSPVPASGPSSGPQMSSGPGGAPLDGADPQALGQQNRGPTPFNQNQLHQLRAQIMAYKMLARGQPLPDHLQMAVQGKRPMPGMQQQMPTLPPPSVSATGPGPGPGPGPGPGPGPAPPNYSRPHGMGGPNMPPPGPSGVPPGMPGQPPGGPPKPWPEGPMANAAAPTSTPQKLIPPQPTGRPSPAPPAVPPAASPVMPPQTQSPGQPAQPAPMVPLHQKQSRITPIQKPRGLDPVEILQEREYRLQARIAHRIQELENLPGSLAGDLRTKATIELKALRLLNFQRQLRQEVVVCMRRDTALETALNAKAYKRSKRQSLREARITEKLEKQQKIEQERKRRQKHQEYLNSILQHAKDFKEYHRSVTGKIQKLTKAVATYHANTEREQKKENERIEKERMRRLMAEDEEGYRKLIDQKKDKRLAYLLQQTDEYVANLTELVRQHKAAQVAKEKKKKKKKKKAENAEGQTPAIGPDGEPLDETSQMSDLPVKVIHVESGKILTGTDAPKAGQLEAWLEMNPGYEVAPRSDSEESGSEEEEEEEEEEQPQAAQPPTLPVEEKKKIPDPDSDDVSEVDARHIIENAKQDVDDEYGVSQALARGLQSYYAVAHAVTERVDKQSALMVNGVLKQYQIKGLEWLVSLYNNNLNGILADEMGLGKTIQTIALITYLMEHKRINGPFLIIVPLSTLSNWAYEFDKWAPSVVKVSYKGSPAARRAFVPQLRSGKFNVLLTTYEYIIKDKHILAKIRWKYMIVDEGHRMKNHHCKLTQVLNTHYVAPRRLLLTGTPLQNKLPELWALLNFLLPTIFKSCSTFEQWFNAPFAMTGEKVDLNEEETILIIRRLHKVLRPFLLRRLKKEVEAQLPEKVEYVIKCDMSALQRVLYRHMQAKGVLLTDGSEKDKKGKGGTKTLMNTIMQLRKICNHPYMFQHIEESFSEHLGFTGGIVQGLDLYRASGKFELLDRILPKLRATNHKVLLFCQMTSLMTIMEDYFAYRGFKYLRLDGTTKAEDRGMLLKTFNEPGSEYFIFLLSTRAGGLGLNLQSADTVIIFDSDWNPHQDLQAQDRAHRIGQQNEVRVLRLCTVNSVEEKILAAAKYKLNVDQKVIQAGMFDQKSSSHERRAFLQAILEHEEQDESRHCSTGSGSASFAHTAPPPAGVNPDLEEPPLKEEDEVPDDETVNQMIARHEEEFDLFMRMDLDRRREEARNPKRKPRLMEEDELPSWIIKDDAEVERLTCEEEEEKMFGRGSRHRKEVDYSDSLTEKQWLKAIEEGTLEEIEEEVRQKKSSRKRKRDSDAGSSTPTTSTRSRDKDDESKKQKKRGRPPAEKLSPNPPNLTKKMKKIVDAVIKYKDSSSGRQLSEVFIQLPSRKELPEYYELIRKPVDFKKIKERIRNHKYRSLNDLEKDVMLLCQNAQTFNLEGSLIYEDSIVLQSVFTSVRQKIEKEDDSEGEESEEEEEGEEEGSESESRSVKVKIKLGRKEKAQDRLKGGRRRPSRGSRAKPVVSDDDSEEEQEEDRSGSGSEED
Sequence of BRM (P51531 whole entry): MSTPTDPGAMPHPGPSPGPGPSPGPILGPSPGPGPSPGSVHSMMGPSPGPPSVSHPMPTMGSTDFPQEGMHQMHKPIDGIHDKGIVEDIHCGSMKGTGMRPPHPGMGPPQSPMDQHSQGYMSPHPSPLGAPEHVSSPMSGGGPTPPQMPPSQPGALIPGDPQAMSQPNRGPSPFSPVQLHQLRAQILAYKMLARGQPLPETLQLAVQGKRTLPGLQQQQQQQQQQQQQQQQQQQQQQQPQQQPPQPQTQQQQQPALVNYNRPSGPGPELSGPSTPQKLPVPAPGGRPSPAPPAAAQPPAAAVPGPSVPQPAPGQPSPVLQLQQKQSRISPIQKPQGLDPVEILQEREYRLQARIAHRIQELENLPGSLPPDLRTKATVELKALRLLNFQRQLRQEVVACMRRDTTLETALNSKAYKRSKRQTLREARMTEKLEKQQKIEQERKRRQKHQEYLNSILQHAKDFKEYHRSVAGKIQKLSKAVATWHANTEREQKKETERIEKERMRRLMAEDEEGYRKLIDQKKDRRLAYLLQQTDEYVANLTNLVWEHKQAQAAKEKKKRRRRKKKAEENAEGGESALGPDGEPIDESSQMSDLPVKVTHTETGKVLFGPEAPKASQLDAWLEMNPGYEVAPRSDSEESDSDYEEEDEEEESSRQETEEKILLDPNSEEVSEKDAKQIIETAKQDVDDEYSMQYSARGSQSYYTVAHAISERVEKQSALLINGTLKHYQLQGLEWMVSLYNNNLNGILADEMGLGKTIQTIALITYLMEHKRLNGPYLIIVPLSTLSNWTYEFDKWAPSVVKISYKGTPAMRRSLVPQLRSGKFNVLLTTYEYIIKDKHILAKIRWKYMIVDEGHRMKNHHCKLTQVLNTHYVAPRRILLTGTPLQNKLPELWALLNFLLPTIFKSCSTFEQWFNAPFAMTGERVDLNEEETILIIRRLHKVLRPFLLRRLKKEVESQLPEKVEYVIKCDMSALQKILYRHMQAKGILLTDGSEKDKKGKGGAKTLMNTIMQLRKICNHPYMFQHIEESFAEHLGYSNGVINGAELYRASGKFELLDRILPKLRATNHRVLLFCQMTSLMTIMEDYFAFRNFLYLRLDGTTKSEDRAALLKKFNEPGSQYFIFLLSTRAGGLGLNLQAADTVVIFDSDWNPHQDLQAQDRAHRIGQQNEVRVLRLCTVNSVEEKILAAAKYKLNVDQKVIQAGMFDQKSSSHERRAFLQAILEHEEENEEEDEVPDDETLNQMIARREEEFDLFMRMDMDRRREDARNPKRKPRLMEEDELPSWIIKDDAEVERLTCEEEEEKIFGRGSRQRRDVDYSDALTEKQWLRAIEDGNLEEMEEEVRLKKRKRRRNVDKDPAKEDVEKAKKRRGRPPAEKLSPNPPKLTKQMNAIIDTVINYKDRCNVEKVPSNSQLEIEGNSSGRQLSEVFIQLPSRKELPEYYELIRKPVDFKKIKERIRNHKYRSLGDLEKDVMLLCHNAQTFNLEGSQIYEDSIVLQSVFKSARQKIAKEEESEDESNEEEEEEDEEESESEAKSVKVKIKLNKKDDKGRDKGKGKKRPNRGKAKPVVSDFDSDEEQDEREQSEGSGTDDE

SMILES | DC50 (BRM) | BRM IF Degradation Sinf (%) (BRM) | DC50 (BRG1) | Dmax (BRG1)
Nc1nnc(-c2ccccc2O)cc1N1CC2CCC(C1)N2c1ccnc(C#CCN2CC3(CC3)C2)c1 [Compound 233, 2-[6-amino-5-[8-[2-[3-(5-azaspiro[2.3]hexan-5-yl)prop-1-ynyl]-4-pyridyl]-3,8-diazabicyclo[3.2.1]octan-3-yl]pyridazin-3-yl]phenol] | < 10 nM | E (E indicates −30%-−70%) | < 10 nM | 30 to 70%
Nc1nnc(-c2ccccc2O)cc1N1CC2CCC(C1)N2c1ccnc(C#CCN2CC(c3ccccc3)C2)c1 [Compound 234, 2-[6-amino-5-[8-[2-[3-(3-phenylazetidin-1-yl)prop-1-ynyl]-4-pyridyl]-3,8-diazabicyclo[3.2.1]octan-3-yl]pyridazin-3-yl]phenol] | 10 to 100 nM | E (E indicates −30%-−70%) | 10 to 100 nM | 71 to 120%
Nc1nnc(-c2ccccc2O)cc1N1CC2CCC(C1)N2c1ccnc(C#CCN2CCC23CCC3)c1 [Compound 235, 2-[6-amino-5-[8-[2-[3-(1-azaspiro[3.3]heptan-1-yl)prop-1-ynyl]-4-pyridyl]-3,8-diazabicyclo[3.2.1]octan-3-yl]pyridazin-3-yl]phenol] | 10 to 100 nM | F (F indicates −71%-−120%) | < 10 nM | 30 to 70%
CS(=O)(=O)N1CCC2(CN(CC#Cc3cc(N4C5CCC4CN(c4cc(-c6ccccc6O)nnc4N)C5)ccn3)C2)C1 [Compound 236, 2-[6-amino-5-[8-[2-[3-(7-methylsulfonyl-2,7-diazaspiro[3.4]octan-2-yl)prop-1-ynyl]-4-pyridyl]-3,8-diazabicyclo[3.2.1]octan-3-yl]pyridazin-3-yl]phenol] | > 100 nM | F (F indicates −71%-−120%) | 10 to 100 nM | 0 to 30%
N#Cc1ccc(C2CN(CC#Cc3cc(N4C5CCC4CN(c4cc(-c6ccccc6O)nnc4N)C5)ccn3)C2)cc1 [Compound 237, 4-[1-[3-[4-[3-[3-amino-6-(2-hydroxyphenyl)pyridazin-4-yl]-3,8-diazabicyclo[3.2.1]octan-8-yl]-2-pyridyl]prop-2-ynyl]azetidin-3-yl]benzonitrile] | 10 to 100 nM | E (E indicates −30%-−70%) | 10 to 100 nM | 30 to 70%
Nc1nnc(-c2ccccc2O)cc1N1CC2CCC(C1)N2c1ccnc(C#CCN2CC(F)(C3CC3)C2)c1 [Compound 238, 2-[6-amino-5-[8-[2-[3-(3-cyclopropyl-3-fluoro-azetidin-1-yl)prop-1-ynyl]-4-pyridyl]-3,8-diazabicyclo[3.2.1]octan-3-yl]pyridazin-3-yl]phenol] | 10 to 100 nM | E (E indicates −30%-−70%) | < 10 nM | 30 to 70%
CC1CCN(CC#Cc2cc(N3C4CCC3CN(c3cc(-c5ccccc5O)nnc3N)C4)ccn2)CCC1(C)O (centres unmarked) [Compound 239, 1-[3-[4-[3-[3-amino-6-(2-hydroxyphenyl)pyridazin-4-yl]-3,8-diazabicyclo[3.2.1]octan-8-yl]-2-pyridyl]prop-2-ynyl]-4,5-dimethyl-azepan-4-ol] | < 10 nM | E (E indicates −30%-−70%) | < 10 nM | 30 to 70%
CC1(O)CCCCN(CC#Cc2cc(N3C4CCC3CN(c3cc(-c5ccccc5O)nnc3N)C4)ccn2)C1 (centres unmarked) [Compound 240, 1-[3-[4-[3-[3-amino-6-(2-hydroxyphenyl)pyridazin-4-yl]-3,8-diazabicyclo[3.2.1]octan-8-yl]-2-pyridyl]prop-2-ynyl]-3-methyl-azepan-3-ol] | 10 to 100 nM | F (F indicates −71%-−120%) | 10 to 100 nM | 30 to 70%
Nc1nnc(-c2ccccc2O)cc1N1CC2CCC(C1)N2c1ccnc(C#CCN2CCCCC(O)(CF)C2)c1 (centres unmarked) [Compound 241, 1-[3-[4-[3-[3-amino-6-(2-hydroxyphenyl)pyridazin-4-yl]-3,8-diazabicyclo[3.2.1]octan-8-yl]-2-pyridyl]prop-2-ynyl]-3-(fluoromethyl)azepan-3-ol] | 10 to 100 nM | E (E indicates −30%-−70%) | < 10 nM | 0 to 30%
Nc1nnc(-c2ccccc2O)cc1N1CC2CCC(C1)N2c1ccnc(C#CCN2CCCCC(O)C2)c1 (centres unmarked) [Compound 242, 1-[3-[4-[3-[3-amino-6-(2-hydroxyphenyl)pyridazin-4-yl]-3,8-diazabicyclo[3.2.1]octan-8-yl]-2-pyridyl]prop-2-ynyl]azepan-3-ol] | < 10 nM | F (F indicates −71%-−120%) | < 10 nM | 30 to 70%
CC1(F)CCCCN(CC#Cc2cc(N3C4CCC3CN(c3cc(-c5ccccc5O)nnc3N)C4)ccn2)C1 (centres unmarked) [Compound 243, 2-[6-amino-5-[8-[2-[3-(3-fluoro-3-methyl-azepan-1-yl)prop-1-ynyl]-4-pyridyl]-3,8-diazabicyclo[3.2.1]octan-3-yl]pyridazin-3-yl]phenol] | 10 to 100 nM | F (F indicates −71%-−120%) | < 10 nM | 30 to 70%
CC1(O)CCCN(CC#Cc2cc(N3C4CCC3CN(c3cc(-c5ccccc5O)nnc3N)C4)ccn2)CC1 (centres unmarked) [Compound 244, 1-[3-[4-[3-[3-amino-6-(2-hydroxyphenyl)pyridazin-4-yl]-3,8-diazabicyclo[3.2.1]octan-8-yl]-2-pyridyl]prop-2-ynyl]-4-methyl-azepan-4-ol] | 10 to 100 nM | E (E indicates −30%-−70%) | < 10 nM | 30 to 70%
Nc1nnc(-c2ccccc2O)cc1N1CC2CCC(C1)N2c1ccnc(C#CCN2CCCCCC2)n1 [Compound 245, 2-(6-amino-5-(8-(2-(3-(azepan-1-yl)prop-1-yn-1-yl)pyrimidin-4-yl)-3,8-diazabicyclo[3.2.1]octan-3-yl)pyridazin-3-yl)phenol] | < 10 nM | F (F indicates −71%-−120%) | < 10 nM | 30 to 70%
Nc1nnc(-c2ccccc2O)cc1N1CC2CCC(C1)N2c1cnnc(C#CCN2CCCCCC2)c1 [Compound 246, 2-(6-amino-5-(8-(6-(3-(azepan-1-yl)prop-1-yn-1-yl)pyridazin-4-yl)-3,8-diazabicyclo[3.2.1]octan-3-yl)pyridazin-3-yl)phenol] | 10 to 100 nM | F (F indicates −71%-−120%) | < 10 nM | 71 to 120%
Nc1nnc(-c2ccccc2O)cc1N1CC2CCC(C1)N2c1cc(C#CCN2CCCCCC2)ncn1 [Compound 247, 2-(6-amino-5-(8-(6-(3-(azepan-1-yl)prop-1-yn-1-yl)pyrimidin-4-yl)-3,8-diazabicyclo[3.2.1]octan-3-yl)pyridazin-3-yl)phenol] | < 10 nM | F (F indicates −71%-−120%) | < 10 nM | 71 to 120%
Nc1nnc(-c2ccccc2O)cc1N1CCC2(CCN(c3ccnc(C#CCN4CCCCCC4)c3)CC2)CC1 [Compound 249, 2-(6-amino-5-(9-(2-(3-(azepan-1-yl)prop-1-yn-1-yl)pyridin-4-yl)-3,9-diazaspiro[5.5]undecan-3-yl)pyridazin-3-yl)phenol] | < 10 nM | E (E indicates −30%-−70%) | > 100 nM | –
Nc1nnc(-c2ccccc2O)cc1N1CCC2(CCN(c3ccnc(C#CCN4CCCCCC4)c3)C2)CC1 [Compound 250, 2-(6-amino-5-(2-(2-(3-(azepan-1-yl)prop-1-yn-1-yl)pyridin-4-yl)-2,8-diazaspiro[4.5]decan-8-yl)pyridazin-3-yl)phenol] | < 10 nM | E (E indicates −30%-−70%) | 10 to 100 nM | 30 to 70%
Nc1nnc(-c2ccccc2O)cc1N1CC2(CN(c3ccnc(C#CCN4CCCCCC4)c3)C2)C1 [Compound 251, 2-[6-amino-5-[6-[2-[3-(azepan-1-yl)prop-1-ynyl]-4-pyridyl]-2,6-diazaspiro[3.3]heptan-2-yl]pyridazin-3-yl]phenol] | < 10 nM | E (E indicates −30%-−70%) | 10 to 100 nM | 30 to 70%
